{
  "source": "PubChem BioAssay AID1259411",
  "about": "(Chemical Carcinogenesis Research Information System (CCRIS), 2018)",
  "tested_on": "rodent carcinogenicity bioassays, tumor incidence",
  "assay": "CCRIS carcinogenicity studies",
  "method_in_brief": "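Archive of carcinogenicity, mutagenicity, tumor promotion and tumor inhibition results drawn from journals, NCI reports and other sources, expert-reviewed; covers 1985-2011 and is no longer updated.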",
  "key": {"[1]": {"conditions": "Species: RAT, Route: ORAL, Tumor Site: Type of Lesion: LIVER"}},
  "note": "Activity calls are given as the source filed them. No rule for the calls is given here.",
  "data": [
    {"compound": "CC(=O)CC(C)C", "values": [
      {"measurement": "carcinogen call", "setting": "Species: Mouse, Strain/Sex: B6C3F1/N/Female, Route: Inhalation, Dose: 0, 450, 900, 1800 ppm 6 hr and 12 min/day, 5 d/wk for 105 wks, Dose: 0, 450, 900, 1800 ppm 6 hr and 12 min/day, 5 d/wk for 105 wks, Tumor Site: Type of Lesion: Liver: Hepatocellular adenoma (13/50, 15/50, 20/50, 23/50), Hepatocellular carcinoma (6/50, 5/50, 6/50, 11/50), Hepatoce, Tumor Site: Type of Lesion: Liver: Hepatocellular adenoma (13/50, 15/50, 20/50, 23/50), Hepatocellular carcinoma (6/50, 5/50, 6/50, 11/50), Hepatoce", "result": "equivocal"},
      {"measurement": "carcinogen call", "setting": "Species: Mouse, Strain/Sex: B6C3F1/N/Male, Route: Inhalation, Dose: 0, 450, 900, 1800 ppm 6 hr and 12 min/day, 5 d/wk for 105 wks, Dose: 0, 450, 900, 1800 ppm 6 hr and 12 min/day, 5 d/wk for 105 wks, Tumor Site: Type of Lesion: Liver: Hepatocellular adenoma (17/50, 25/50, 23/50, 34/50), Hepatocellular carcinoma (12/50, 12/50, 10/50, 9/50), Hepato, Tumor Site: Type of Lesion: Liver: Hepatocellular adenoma (17/50, 25/50, 23/50, 34/50), Hepatocellular carcinoma (12/50, 12/50, 10/50, 9/50), Hepato", "result": "active; positive (ntp describes as some evidence)"},
      {"measurement": "carcinogen call", "setting": "Species: Rat, Strain/Sex: F344/N/Female, Route: Inhalation, Dose: 0, 450, 900, 1800 ppm 6 hr and 12 min/d, 5 d/wk for 104 wks, Dose: 0, 450, 900, 1800 ppm 6 hr and 12 min/d, 5 d/wk for 104 wks, Tumor Site: Type of Lesion: Mesenchymal tumor malignant: (0/50, 0/50, 0/50, 2/50)", "result": "equivocal"},
      {"measurement": "carcinogen call", "setting": "Species: Rat, Strain/Sex: F344/N/Male, Route: Inhalation, Dose: 0, 450, 900, 1800 ppm 6 hr and 12 min/d, 5 d/wk for 104 wks, Dose: 0, 450, 900, 1800 ppm 6 hr and 12 min/d, 5 d/wk for 104 wks, Tumor Site: Type of Lesion: Kidney: Renal tubule adenoma (2/50, 3/50, 3/50, 10/50), Renal tubule carcinoma (0/50, 1/50, 0/50, 2/50), Renal tubule ad, Tumor Site: Type of Lesion: Kidney: Renal tubule adenoma (2/50, 3/50, 3/50, 10/50), Renal tubule carcinoma (0/50, 1/50, 0/50, 2/50), Renal tubule ad", "result": "active; positive (ntp describes as some evidence)"}
    ]},
    {"compound": "c1ccc2ncccc2c1", "values": [
      {"measurement": "carcinogen call", "setting": "Species: MOUSE, Route: ORAL, Tumor Site: Type of Lesion: LIVER", "result": "active; positive"},
      {"measurement": "carcinogen call", "setting": "Species: MOUSE, Strain/Sex: CD-1/FEMALE, Route: INTRAPERITONEAL, Dose: 0, 0.25, 0.5, 1.0 UMOL IN DMSO TO NEWBORN MICE ON DAYS 1, 8 AND 15 OF LIFE RESPECTIVELY (TOTAL DOSE: 1.75 UMOL) (STUDY D, Dose: 0, 0.25, 0.5, 1.0 UMOL IN DMSO TO NEWBORN MICE ON DAYS 1, 8 AND 15 OF LIFE RESPECTIVELY (TOTAL DOSE: 1.75 UMOL) (STUDY D", "result": "inactive; negative"},
      {"measurement": "carcinogen call", "setting": "Species: MOUSE, Strain/Sex: CD-1/FEMALE, Route: INTRAPERITONEAL, Dose: 0, 1.75 UMOL/MOUSE (TOTAL DOSE) ADMINISTERED DURING DAYS 1, 8, AND 15 OF LIFE (STUDY DURATION: 52 WK)", "result": "inactive; negative"},
      {"measurement": "carcinogen call", "setting": "Species: MOUSE, Strain/Sex: CD-1/MALE, Route: INTRAPERITONEAL, Dose: 0, 0.25, 0.5, 1.0 UMOL IN DMSO TO NEWBORN MICE ON DAY 1,8 AND 15 OF LIFE RESPECTIVELY (TOTAL DOSE: 1,75 UMOL) (STUDY DUR, Dose: 0, 0.25, 0.5, 1.0 UMOL IN DMSO TO NEWBORN MICE ON DAY 1,8 AND 15 OF LIFE RESPECTIVELY (TOTAL DOSE: 1,75 UMOL) (STUDY DUR, Tumor Site: Type of Lesion: LIVER: HEPATOMA, ADENOMA", "result": "active; positive"},
      {"measurement": "carcinogen call", "setting": "Species: MOUSE, Strain/Sex: CD-1/MALE, Route: INTRAPERITONEAL, Dose: 0, 1.75 UMOL/MOUSE (TOTAL DOSE) ADMINISTERED DURING DAYS 1, 8, AND 15 OF LIFE (STUDY DURATION: 52 WK), Tumor Site: Type of Lesion: LIVER: ADENOMA OR CARCINOMA", "result": "active; positive"},
      {"measurement": "carcinogen call", "setting": "[1]", "result": "active; positive"},
      {"measurement": "carcinogen call", "setting": "Species: RAT, Strain/Sex: SPRAGUE-DAWLEY/FEMALE, Route: SUBCUTANEOUS, Dose: 0, 200 UMOL/KG IN DMSO INTO SUPRASCAPULAR AREA ON DAY 1 OF LIFE FOLLOWED BY 0, 100 UMOL 1/WK AT WK 2-7 THEN 0, 200 UMOL/, Dose: 0, 200 UMOL/KG IN DMSO INTO SUPRASCAPULAR AREA ON DAY 1 OF LIFE FOLLOWED BY 0, 100 UMOL 1/WK AT WK 2-7 THEN 0, 200 UMOL/", "result": "inactive; negative"},
      {"measurement": "carcinogen call", "setting": "Species: RAT, Strain/Sex: SPRAGUE-DAWLEY/MALE, Route: SUBCUTANEOUS, Dose: 0, 200 UMOL/KG IN DMSO INTO SUPRASCAPULAR AREA ON DAY 1 OF LIFE FOLLOWED BY 0, 100 UMOL 1/WK AT WK 2-7 THEN 0, 200 UMOL/, Dose: 0, 200 UMOL/KG IN DMSO INTO SUPRASCAPULAR AREA ON DAY 1 OF LIFE FOLLOWED BY 0, 100 UMOL 1/WK AT WK 2-7 THEN 0, 200 UMOL/", "result": "inactive; negative"},
      {"measurement": "carcinogen call", "setting": "Species: RAT, Strain/Sex: WISTAR/MALE, Route: ORAL, Dose: 0, 0.25% IN DIET FOR 4 WK (STUDY DURATION: 20 WK)", "result": "inactive; negative"},
      {"measurement": "carcinogen call", "setting": "Species: RAT, Strain/Sex: WISTAR/MALE, Route: ORAL, Dose: 0, 0.25% IN DIET FOR 8 WK (STUDY DURATION: 20 WK)", "result": "inactive; negative"},
      {"measurement": "carcinogen call", "setting": "Species: RAT, Strain/Sex: WISTAR/MALE, Route: ORAL, Dose: 0, 0.25% IN DIET FOR 12 WK (STUDY DURATION: 20 WK), Tumor Site: Type of Lesion: LIVER: HEMANGIOENDOTHELIOMA", "result": "active; positive"},
      {"measurement": "carcinogen call", "setting": "Species: RAT, Strain/Sex: WISTAR/MALE, Route: ORAL, Dose: 0, 0.25% IN DIET FOR 16 WK (STUDY DURATION: 20 WK), Tumor Site: Type of Lesion: LIVER: HEMANGIOENDOTHELIOMA", "result": "active; positive"},
      {"measurement": "carcinogen call", "setting": "Species: RAT, Strain/Sex: WISTAR/MALE, Route: ORAL, Dose: 0, 0.25% IN DIET FOR 20 WK (STUDY DURATION: 20 WK), Tumor Site: Type of Lesion: LIVER: HEMANGIOENDOTHELIOMA", "result": "active; positive"}
    ]},
    {"compound": "Nc1ccc(-c2ccc(N)cc2)cc1", "values": [
      {"measurement": "carcinogen call", "setting": "Species: DOG, Route: ORAL, Tumor Site: Type of Lesion: URINARY BLADDER", "result": "active; positive"},
      {"measurement": "carcinogen call", "setting": "Species: HAMSTER, Route: ORAL, Tumor Site: Type of Lesion: LIVER", "result": "active; positive"},
      {"measurement": "carcinogen call", "setting": "Species: HUMAN, Route: ORAL, INHALATION, DERMAL, Tumor Site: Type of Lesion: URINARY BLADDER", "result": "active; positive"},
      {"measurement": "carcinogen call", "setting": "Species: MOUSE, Route: SUBCUTANEOUS, Tumor Site: Type of Lesion: LIVER", "result": "active; positive"},
      {"measurement": "carcinogen call", "setting": "[1]", "result": "active; positive"},
      {"measurement": "carcinogen call", "setting": "Species: RAT, Route: SUBCUTANEOUS, Tumor Site: Type of Lesion: LIVER, EAR (ZYMBAL GLAND), INJECTION SITE, Tumor Site: Type of Lesion: LIVER, EAR (ZYMBAL GLAND), INJECTION SITE", "result": "active; positive"},
      {"measurement": "carcinogen call", "setting": "Species: RAT, Strain/Sex: STRAIN-CD/FEMALE, Route: INTRAPERITONEAL, Dose: 0, 10, 30 UMOL/KG IN TRIOCTANOIN 2/WK FOR 4 WK (TOTAL DOSES: 13.5, 40.1 UMOL) (STUDY DURATION: 46 WK), Dose: 0, 10, 30 UMOL/KG IN TRIOCTANOIN 2/WK FOR 4 WK (TOTAL DOSES: 13.5, 40.1 UMOL) (STUDY DURATION: 46 WK), Tumor Site: Type of Lesion: MAMMARY GLAND: FIBROADENOMA, ADENOCARCINOMA, EAR (ZYMBAL GLAND): ADENOMA OR CARCINOMA", "result": "active; positive"}
    ]},
    {"compound": "CC1=C[C@H]2O[C@@H]3[C@H](O)C[C@](C)([C@@]2(CO)[C@H](O)C1=O)[C@]31CO1", "values": [
      {"measurement": "carcinogen call", "setting": "Species: MOUSE, Strain/Sex: B6C3F1/FEMALE, Route: ORAL, Dose: 0, 1, 5, 10 PPM IN DIET FOR 2 YR (STUDY DURATION: 2 YR), Dose: 0, 1, 5, 10 PPM IN DIET FOR 2 YR (STUDY DURATION: 2 YR)", "result": "inactive; negative"},
      {"measurement": "carcinogen call", "setting": "Species: MOUSE, Strain/Sex: B6C3F1/MALE, Route: ORAL, Dose: 0, 1, 5, 10 PPM IN DIET FOR 2 YR (STUDY DURATION: 2 YR), Dose: 0, 1, 5, 10 PPM IN DIET FOR 2 YR (STUDY DURATION: 2 YR)", "result": "inactive; negative"}
    ]}
  ]
}
